We go through ten molecules from US7407940B2, “Antimicrobial hexapeptides” (Helix BioMedix Inc., priority 2005, dated 2008).

The test system of one test is Staphylococcus aureus. In kind it is cell-based. The method, then:
(§1) MICs (minimal inhibitory concentrations) were determined for the hexapeptides of interest using a slightly modified version of the NCCLS (National Committee for Clinical Laboratory Standards) broth microdilution method as described previously (Steinberg et al., AAC 41: 1738, 1997). Briefly, antimicrobial agents were prepared as 10× concentrates in the most appropriate solvent. For the hexapeptide, 0.01% acetic acid containing 0.2% bovine serum albumin as a carrier protein was used. Inocula were prepared by resuspending colonies from a BAP (please spell out this term) in medium and adjusting the suspension to match that of a 0.5 McFarland standard. The suspension was diluted into fresh medium (as recommended by NCCLS for the organism) to give 2×10^5 to 7×10^5 CFU/ml for bacteria or 2×10^3 to 7×10^3 CFU/ml for Candida. After dispensing 100 μl aliquots of the microbial suspension into each well of a 96-well polypropylene microtiter plate, 11 μl of test compound was added. The MIC was defined as the lowest concentration of drug which prevented visible turbidity after 16 to 20 hours (bacteria) or 46 to 50 hours (Candida) at 35° C.

The test system of a further test is Pseudomonas aeruginosa. Format: cell-based. Details: MIC, lipid length SAR: unit not given here. The settings on record: for MIC: agent alone. As to the method: as §1
Another test concerns MRSA. Put plainly: Kill curve in 10% sheep serum-phosphate buffer against MRSA. The arrangement: MRSA count in kill curve: unit not given here. Format: cell-based, S. aureus.
The subject of test [1] is Trychophyton mentagrophytes. Put plainly: MIC100 against dermatophyte Trychophyton mentagrophytes. Format: cell-based. Conditions: T. mentagrophytes; at 10 days. The method, then:
(§2) In order to compare the activity of various antimicrobial peptides, including hexapeptide SEQ ID NO:1 (P0666), MIC were determined against the dermatophytes Trychophyton rubrum and Trychophyton mentagrophytes. The concentration of samples investigated were: 2000, 1000, 500, 250 and 125 μg/ml, respectively. The medium used was modified Sabouraud's media without agar. For a 100 mL of modified Sabouraud medium: 3 g of Sabouraud's dextrose broth (Difco) was mixed into 100 mL of deionized water. The pH was adjusted to 7.0 with 0.1 N NaOH. The solution was autoclaved for thirty minutes. 940 μL of medium was poured into sterile 20 mL test tubes with plastic caps and was allowed to cool.
(§3) 50 μL of […] was added to each 20 mL test tube to make the required concentration. A control tube was composed of 50 μL of saline without sample. For the MIC experiments,
(§4) 10 μL of organism suspended in saline was added to the each 20 mL test tube and vortexed slightly. Each of the test tubes was covered in parafilm and maintained on a shaker at 27° C. at a speed of approximately 100 rpm.
(§5) The growth/inhibition of the organism was observed on a daily basis. […] The Minimum Inhibition Concentration (MIC100) for compounds F1 to F10 against fungus Trychophyton rubrum and Trychophyton mentagrophytes at 10 days.

The next test has as its system Trychophyton rubrum. Put plainly: MIC100 against dermatophyte Trychophyton rubrum. In kind it is cell-based. The settings on record: T. rubrum; at 10 days. The method, then: as §2, §3, §4, §5
A further test has as its system P. aeruginosa. In kind it is cell-based. The settings on record: combined with SEQ ID NO: 55. As to the method:
(§6) The fractional inhibitory concentration (FIC) index was used to determine the synergy between antimicrobial agents. Peptide MICs against test microorganisms were determined three times on separate occasions. […]

The next test concerns Candida albicans. In kind it is cell-based. As to the method: as §1
Test [2] has as its system azole resistant strains of C. albicans. In kind it is cell-based. Details: MIC-SEQ ID NO: 55 + azole, peptide part / MIC-SEQ ID NO: 55 + azole, azole part: unit not given beside the values. Conditions: in combination with SEQ ID NO: 55. The method, then:
as §6
All strains are azole resistant clinical isolates from Prof. Ted White (Seattle Biotechnology Research Institute, Seattle)

Values after ≈ are worked out from the molar mass of the structure shown. Like-named read-outs stand apart in the source and are kept apart here. Where a SMILES comes first, the peptide text is derived from it. Where no end group is shown, it is not given here. The star is where a group is joined. Pentadecanoyl = CCCCCCCCCCCCCCC(=O)*; Tridecanoyl = CCCCCCCCCCCCC(=O)*; Lauroyl = CCCCCCCCCCCC(=O)*

Take `CCCCCCCCCCCCCCC(=O)N[C@@H](CCCCN)C(=O)N[C@@H](Cc1ccccc1)C(=O)N[C@@H](CCCCN)C(=O)N[C@@H](Cc1c[nH]c2ccccc12)C(=O)N1CCC[C@H]1C(=O)N[C@@H](Cc1c[nH]c2ccccc12)C(N)=O` [compound 78] (Pentadecanoyl-KFKWPW-NH2): in the test with Staphylococcus aureus, the “Minimal Inhibitory Concentrations (Mics)” value is recorded as 32-64 Mg/Ml.

In the case of KFKWPW-NH2 [SEQ ID NO: 1, KFKWPW-NH2], in the test with Pseudomonas aeruginosa (P.aeruginosa), the “MIC, lipid length SAR” value turned out to be 32. The “MRSA count in kill curve” value turned out to be 99200 in the test with MRSA (buffer, 2 mg/ml, 30 min); 62800 with MRSA (buffer, 2 mg/ml, 1 hour); 99200 in the test with MRSA (buffer, 2 mg/ml, 2 hours); 99200 in the test with MRSA (buffer, 2 mg/ml, 3 hours); 99200 in the test on MRSA (buffer, 2 mg/ml, 4 hours); 99200 in the test with MRSA (buffer, 2 mg/ml, 5 hours). Further, the “MRSA count in kill curve” value is 102300 with MRSA (serum, 1 mg/ml, 30 min); 99600 in the test on MRSA (serum, 1 mg/ml, 1 hour); 15110 in the test on MRSA (serum, 1 mg/ml, 2 hours); 12080 in the test on MRSA (serum, 1 mg/ml, 3 hours); 5020 in the test with MRSA (serum, 1 mg/ml, 4 hours); 2570 in the test on MRSA (serum, 1 mg/ml, 5 hours). In addition, the “MRSA count in kill curve” value with MRSA (serum, 2 mg/ml, 30 min) stood at 9800; in the test with MRSA (serum, 2 mg/ml, 1 hour) it was 3200; in the test with MRSA (serum, 2 mg/ml, 2 hours), 630; in the test with MRSA (serum, 2 mg/ml, 3 hours) it was 250; with MRSA (serum, 2 mg/ml, 4 hours) it was 70; in the test on MRSA (serum, 2 mg/ml, 5 hours), 50. The MIC100 (in test [1]; in the test on Trychophyton rubrum) was 250 µg/mL throughout.

For `CCCCCCCCCCCCC(=O)N[C@@H](CCCCN)C(=O)N[C@@H](Cc1ccccc1)C(=O)N[C@@H](CCCCN)C(=O)N[C@@H](Cc1c[nH]c2ccccc12)C(=O)N1CCC[C@H]1C(=O)N[C@@H](Cc1c[nH]c2ccccc12)C(N)=O` [compound 80] (Tridecanoyl-KFKWPW-NH2), in the test with Staphylococcus aureus, the “Minimal Inhibitory Concentrations (Mics)” value is listed as 2-4 Mg/Ml.

As to polymyxin B [reference compound], the MIC (commonly the lowest concentration found to suppress growth) turned out to be 0.5 µg/mL against Pseudomonas aeruginosa (P. aeruginosa 100609, tobromycin resistant); 0.5 µg/mL against Pseudomonas aeruginosa (P. aeruginosa H187, wide type); 0.25 µg/mL in the test with Pseudomonas aeruginosa (P. aeruginosa H401, mucoid clinical isolate); 1 µg/mL in the test with Pseudomonas aeruginosa (P. aeruginosa M917, multi-drug resistant clinical isolate). Also, the MIC-PXB-combined in the test on P. aeruginosa (P. aeruginosa 100609) is 0.125 µg/mL; in the test on P. aeruginosa (P. aeruginosa H187), 0.06 µg/mL; in the test on P. aeruginosa (P. aeruginosa H401) it was 0.0625 µg/mL; in the test on P. aeruginosa (P. aeruginosa M917), 0.25 µg/mL.

As to FAKLLAKALKKLL-NH2 [SEQ ID NO: 87], the MIC100 (in test [1]; in the test with Trychophyton rubrum) was 500 µg/mL each time.

On to H-RFKWFW-NH2 [compound 7], for which the “Minimal Inhibitory Concentrations (Mics)” value is 64-128^1 Mg/Ml in the test on Candida albicans (C. albicans strain 105) and 64-128 Mg/Ml with Staphylococcus aureus.

With FALKALKKLKKALKKAL-NH2 [SEQ ID NO: 86], the MIC100 in test [1] was 250 µg/mL; against Trychophyton rubrum it was 1000 µg/mL.

With `CCCCCCCCCCCC(=O)N[C@@H](CCCCN)C(=O)N[C@@H](Cc1ccccc1)C(=O)N[C@@H](CCCCN)C(=O)N[C@@H](Cc1c[nH]c2ccccc12)C(=O)N1CCC[C@H]1C(=O)N[C@@H](Cc1c[nH]c2ccccc12)C(N)=O` [compound 72] (Lauroyl-KFKWPW-NH2), the “Minimal Inhibitory Concentrations (Mics)” value with Staphylococcus aureus was 4-8 Mg/Ml.

As for `Clc1ccccc1C(c1ccccc1)(c1ccccc1)n1ccnc1` [Clotrimazole, clotrimazole, reference compound], the “MIC-SEQ ID NO: 55 + azole, azole part” value was 12.5 in test [2] (C. albicans #185); 12.5 in test [2] (C. albicans #186); 25 in test [2] (C. albicans #187); 50 in test [2] (C. albicans #192); 50 in test [2] (C. albicans #196); 25 in test [2] (C. albicans #199). Moreover, the MIC with Candida albicans (T.W. Candida #184, azole resistant clinical isolate) is above 256 µg/mL; in the test with Candida albicans (T.W. Candida #185 (CDR1,2), azole resistant clinical isolate), 128 µg/mL (≈ 371 µM); in the test with Candida albicans (T.W. Candida #186 (CDR1,2), azole resistant clinical isolate), 32 µg/mL (≈ 92.8 µM); against Candida albicans (T.W. Candida #187 (CDR1,2), azole resistant clinical isolate), above 256 µg/mL; in the test on Candida albicans (T.W. Candida #192 (CDR1,2), azole resistant clinical isolate), 128 µg/mL (≈ 371 µM); against Candida albicans (T.W. Candida #193, azole resistant clinical isolate), 0.5 µg/mL (≈ 1.45 µM). Moreover, the MIC is above 256 µg/mL against Candida albicans (T.W. Candida #194, azole resistant clinical isolate); 256 µg/mL (≈ 742 µM) against Candida albicans (T.W. Candida #195, azole resistant clinical isolate); 64 µg/mL (≈ 186 µM) with Candida albicans (T.W. Candida #196 (CDR1,2), azole resistant clinical isolate); above 256 µg/mL in the test on Candida albicans (T.W. Candida #197, azole resistant clinical isolate); above 256 µg/mL in the test on Candida albicans (T.W. Candida #198, azole resistant clinical isolate); 64 µg/mL (≈ 186 µM) in the test on Candida albicans (T.W. Candida #199 (CDR1,2), azole resistant clinical isolate).

On to FAKLLAKLAKKLL-NH2 [SEQ ID NO: 89], for which the MIC100 (in test [1]; in the test on Trychophyton rubrum) was 500 µg/mL in each case.
